Experimental findings from US8779144B2, “Bicycloheteroaryl compounds as P2X7 modulators and uses thereof” (Evotec (US) Inc., priority 2006, dated 2014) are described below.

For this experiment, the system named is IL-1β release from THP-1 cells. Nature of the experiment: IL-1β release assay in differentiated THP-1 cells stimulated with BzATP (ELISA). The class given is cell-based. Conditions: Homo sapiens; for inhibition at 0.3 µM: 0.3 uM compound, BzATP 250 uM, read-out: IL-1β % Inhib. @ 0.3 uM.; for IC50: released IL-1β as in Example 9, four parameter logistic fit, read-out: IL-Iβ IC50. The protocol:
THP-1 cells (ATCC Cat #285-IF-100) are plated in 96 well plates at a concentration of 200,000 cells per well and allowed to differentiate in RPMI-1640 media (ATCC Cat #30-2001) containing 10% FBS, 100 IU/mL penicillin, 100 ug/mL streptomycin, 100 ng/mL LPS and 100 ng/mL IFN-γ for 16 hours. Following differentiation, the cells are treated for an additional 2 hours in RPMI-1640 media containing 100 IU/mL penicillin, 100 ug/mL streptomycin and fresh LPS at 100 ng/mL. The cells are then pretreated for 30 minutes with the compound of interest at the appropriate concentration in RPMI media containing 100 IU/mL penicillin, 100 ug/mL streptomycin. Following the pretreatment 2′,3′-O-(4-benzoylbenzoyl)-adenosine 5′-triphosphate (Sigma Aldrich Cat # B6396) is added to a final concentration of 250 uM and the cells are incubated for an additional 45 minutes. 30 uL of cell supernatant is then collected and IL-113 levels determined via ELISA (R&D systems Cat. # HSLB50) according to manufacturer's recommendations using the Tecan Safire plate reader. Background adjusted IL-1β levels of drug treated and non-treated cells are used to calculate the percent inhibition. […]
The compounds set forth in Table 1 were tested for activity in a cellular model as described herein. Specifically, cells were pretreated with differing amounts of the compound under test and released IL-1β determined as in Example 9, above. Measurements were made and IC50 values, presented in Table 2, below, were determined by fitting the data to a four parameter logistic equation using GraphPad Prism software (GraphPad Software, Inc). The equation may be expressed by the following formula: Y=Bottom+(Top−Bottom)/(1+10^((LogEC50−X)*HillSlope)) Where X is the logarithm of concentration, Y is the response and Y starts at Bottom and goes to Top with a sigmoid shape.
For orientation: ELISA stands for enzyme-linked immunosorbent assay.

As to `C[C@@H](C(N)=O)n1ccc2c(C(=O)NCc3ccc(Cl)c(Cl)c3)cccc2c1=O` [Compound 2061], the inhibition at 0.3 µM lay in the range of 51 to 75% and the IC50 – broadly, the concentration at which inhibition is half-maximal – worked out at 214 nM.

Consider `O=C(NCC1(O)CCCCCC1)c1cccc2c(=O)n(Cc3ccc(F)cc3)ccc12` [Compound 2031, 2-(4-Fluoro-benzyl)-1-oxo-1,2-dihydro-isoquinoline-5-carboxylic acid (1-hydroxy-cycloheptylmethyl)-amide], for which the inhibition at 0.3 µM was > 76% and the concentration for half-maximal inhibition (IC50) came out at 42 nM.

Take `O=C(NCc1ccc(Cl)c(C(F)(F)F)c1)c1cccc2c(=O)n(C(CO)CO)ccc12` [Compound 2053, 2-(2-Hydroxy-1-hydroxymethyl-ethyl)-1-oxo-1,2-dihydro-isoquinoline-5-carboxylic acid 4-chloro-3-trifluoromethyl-benzylamide]: the inhibition at 0.3 µM is > 76% and the IC50 was 40.4 nM.

For the compound `O=C(NCC1CCCCC1)c1ncnc2c1CCN(Cc1ccccc1Cl)C2` [Compound 2008], the inhibition at 0.3 µM lay in the range of 0 to 25%.

`O=C(NCC1CCCCCC1)c1cccc2c(=O)n(CC(O)CO)ccc12` (stereo not drawn) [Compound 2039, 2-(2,3-Dihydroxy-propyl)-1-oxo-1,2-dihydro-isoquinoline-5-carboxylic acid cycloheptylmethyl-amide]: the inhibition at 0.3 µM is 51 to 75% and the half-maximal inhibitory concentration (IC50) is 257 nM.

Turning to `Cc1ccc2c(c1C(=O)NCc1ccc(C(F)(F)F)c(F)c1)CCN(C(=O)C1CCC1)C2` [Compound 2081], the inhibition at 0.3 µM is > 76% and the IC50 was determined as 149 nM.

Take `O=C(NCC12CC3CC(CC(C3)C1)C2)c1ncnc2c1CCN(Cc1ccccc1Cl)C2` [Compound 2025]: the inhibition at 0.3 µM was in the range of 26 to 50%.

In the case of `O=C(NCc1ccc(C(F)(F)F)cc1)c1cccc2c(=O)n(C3CC3)ccc12` [Compound 2071], the inhibition at 0.3 µM is 0 to 25% and the 50% inhibitory concentration (IC50) is 754 nM.

Take `CC1(C)CCCC(O)(CNC(=O)c2cccc3c(=O)n(CCO)ccc23)C1` (stereo not drawn) [Compound 2051]: the inhibition at 0.3 µM was in the range of 51 to 75% and the IC50 turned out to be 256 nM.

Turning to `O=C(NCC1CCCCC1)c1cccc2c(=O)n(C(CO)CO)ccc12` [Compound 2055], the inhibition at 0.3 µM fell in the range of 51 to 75% and the IC50 amounted to 269 nM.

As for `O=C(NCc1ccc(Cl)c(Cl)c1)c1cccc2c(=O)n(C3CC3)ccc12` [Compound 2072, 2-Cyclopropyl-1-oxo-1,2-dihydro-isoquinoline-5-carboxylic acid 3,4-dichloro-benzylamide], the inhibition at 0.3 µM was > 76% and the IC50 is 59.2 nM.

Consider `CC1(C)CCCC(O)(CNC(=O)c2cccc3c(=O)n(CC(O)CO)ccc23)C1` (stereo not drawn) [Compound 2042], for which the inhibition at 0.3 µM lay in the range of 51 to 75% and the IC50 was 145 nM.

Take `C[C@@H](C(N)=O)n1ccc2c(C(=O)NCC34CC5CC(CC(C5)C3)C4)cccc2c1=O` [Compound 2065, 2-((S)-1-Carbamoyl-ethyl)-1-oxo-1,2-dihydro-isoquinoline-5-carboxylic acid (adamantan-1-ylmethyl)-amide]: the inhibition at 0.3 µM was > 76% and the IC50 was 0.44 nM.

For the compound `O=C(NCc1cccc(C(F)(F)F)c1F)c1cccc2c(=O)n(C3CC3)ccc12` [Compound 2077], the inhibition at 0.3 µM is 51 to 75% and the IC50 worked out at 162 nM.

Consider `C[C@H](C(N)=O)n1ccc2c(C(=O)NCc3ccc(Cl)c(Cl)c3)cccc2c1=O` [Compound 2060], for which the inhibition at 0.3 µM was > 76% and the IC50 was 38.2 nM.

For the compound `Cc1ccc(C2(CNC(=O)c3ncnc4c3CCN(Cc3ccccc3)C4)CCCCC2)cc1` [Compound 2018], the inhibition at 0.3 µM was in the range of 0 to 25%.

On to `O=C(NCC1CCCCC1)c1ncnc2c1CCN(Cc1ccc(Cl)cc1)C2` [Compound 2009], for which the inhibition at 0.3 µM is 0 to 25%.

`Cc1ccc(CN2CCc3c(ncnc3C(=O)NCC3CCCCC3)C2)cc1` [Compound 2013]: the inhibition at 0.3 µM lay in the range of 0 to 25%.

Regarding `Cc1ccc2c(c1C(=O)NCc1ccc(C(F)(F)F)c(F)c1)CCN(C(=O)C1CC1)C2` [Compound 2080], the inhibition at 0.3 µM is 26 to 50% and the IC50 was determined as 356 nM.
